Assay results: ChEMBL document CHEMBL5154856, “Targeting the tumor microenvironment by an enzyme-responsive prodrug of tubulin destabilizer for triple-negative breast cancer therapy with high safety” (Eur J Med Chem, 2022)
Active and inactive are the calls of the source. The rule behind the calls is not given here.

How the values were obtained:
[1] = Stability of compound in phosphate buffer at pH 7.4 assessed as Escherichia coli beta-glucuronidase mediated compound cleavage at 1.2 mg measured after 2 hrs by HPLC analysis; format: ADME; conditions: pH 7.4, 2 h
[2] = Chemical stability of compound at pH 7.4 in PBS buffer at 1 mg incubated for 48 hrs by HPLC analysis; format: physicochemical; conditions: pH 7.4, 48 h
[3] = Chemical stability of compound at pH 7.4 in bovine serum at 1 mg incubated for 48 hrs by HPLC analysis; format: ADME, cell-free; conditions: cattle, pH 7.4, 48 h
[4] = Metabolic stability in rat liver microsomes assessed as intrinsic clearance in liver at 10 mM measured up to 60 mins in presence of NADPH by LC-MS/MS analysis; format: ADME, Microsome; conditions: read-out: CLH
[5] = Metabolic stability in rat liver microsomes assessed as intrinsic clearance in microsomes at 10 mM measured up to 60 mins in presence of NADPH by LC-MS/MS analysis; format: ADME, Microsome; conditions: read-out: CLH
[6] = Metabolic stability in rat liver microsomes assessed as parent compound remaining at 10 mM measured up to 60 mins in presence of NADPH by LC-MS/MS analysis; format: ADME, Microsome; conditions: read-out: Stability
[7] = Stability of compound in phosphate buffer at pH 7.4 assessed as Escherichia coli beta-glucuronidase mediated compound cleavage at 1.2 mg measured after 10 mins by HPLC analysis; format: ADME; conditions: pH 7.4, 10 min
HeLa [8] = assay: Antiproliferative activity against human HeLa cells assessed as inhibition of cell growth incubated for 48 hrs in absence of beta-glucuronidase by MTT assay; format: functional, cell-based
HeLa [9] = assay: Antiproliferative activity against human HeLa cells assessed as inhibition of cell growth incubated for 48 hrs in presence of beta-glucuronidase by MTT assay; format: functional, cell-based
MDA-MB-231 [10] = assay: Antiproliferative activity against human MDA-MB-231 cells assessed as inhibition of cell growth incubated for 48 hrs in presence of beta-glucuronidase by MTT assay; format: functional, cell-based; conditions: MDA-MB-231, 48 h
[11] = Aqueous solubility of compound in PBS at pH 7.4 at 1 mg incubated for 10 mins by HPLC analysis; format: physicochemical
SK-OV-3 [12] = assay: Antiproliferative activity against human SK-OV-3 cells assessed as inhibition of cell growth incubated for 48 hrs in presence of beta-glucuronidase by MTT assay; format: functional, cell-based; conditions: SK-OV-3, 48 h
[13] = Metabolic stability in rat liver microsomes assessed as half life at 10 mM measured up to 60 mins in presence of NADPH by LC-MS/MS analysis; format: ADME, Microsome
MCF7 [14] = assay: Antiproliferative activity against human MCF7 cells assessed as inhibition of cell growth incubated for 48 hrs in absence of beta-glucuronidase by MTT assay; format: functional, cell-based; conditions: MCF7, 48 h
SK-OV-3 [15] = assay: Antiproliferative activity against human SK-OV-3 cells assessed as inhibition of cell growth incubated for 48 hrs in absence of beta-glucuronidase by MTT assay; format: functional, cell-based; conditions: SK-OV-3, 48 h
MDA-MB-231 [16] = assay: Antiproliferative activity against human MDA-MB-231 cells assessed as inhibition of cell growth incubated for 48 hrs in absence of beta-glucuronidase by MTT assay; format: functional, cell-based; conditions: MDA-MB-231, 48 h
MCF7 [17] = assay: Antiproliferative activity against human MCF7 cells assessed as inhibition of cell growth incubated for 48 hrs in presence of beta-glucuronidase by MTT assay; format: functional, cell-based; conditions: MCF7, 48 h
HeLa [18] = assay: Antiproliferative activity against human HeLa cells assessed as inhibition of cell growth incubated for 48 hrs by MTT assay; format: functional, cell-based
MDA-MB-231 [19] = assay: Antiproliferative activity against human MDA-MB-231 cells assessed as inhibition of cell growth incubated for 48 hrs by MTT assay; format: functional, cell-based; conditions: MDA-MB-231, 48 h
SK-OV-3 [20] = assay: cells; conditions: Homo sapiens, SK-OV-3, 48 h
Description: Antiproliferative activity against human SK-OV-3 cells assessed as inhibition of cell growth incubated for 48 hrs by MTT assay

MCF7 [21] = assay: Antiproliferative activity against human MCF7 cells assessed as inhibition of cell growth incubated for 48 hrs by MTT assay; format: functional, cell-based; conditions: MCF7, 48 h
[22] = Acute toxicity in BALB/c mouse assessed as animal survival at 70 mg/kg, iv administered as single dose measured after 14 days; format: organism-based; conditions: in vivo, time 14 day
[23] = Toxicity in nude mouse assessed as effect on basophil level at 3.75 mg/kg, iv administered qd for 3 days (reference value: 11.70 %); format: organism-based; conditions: in vivo, 72 h, time 3 day
[24] = Toxicity in nude mouse xenografted with human MDA-MB-231 cells assessed as pathological changes in liver at 3.75 mg/kg, iv administered every 2 days for 14 days by H and E staining based assay; format: organism-based; conditions: in vivo, 336 h, time 14 day
[25] = Toxicity in nude mouse assessed as effect on mean corpuscular hemoglobin level at 3.75 mg/kg, iv administered qd for 3 days (reference value: 22.3 pg); format: organism-based; conditions: in vivo, 72 h, time 3 day
[26] = Toxicity in nude mouse assessed as effect on lymphocyte level at 3.75 mg/kg, iv administered qd for 3 days (reference value: 60.90 %); format: organism-based; conditions: in vivo, 72 h, time 3 day
[27] = Toxicity in nude mouse assessed as effect on gamma-glutamyl transpeptidase level in serum at 3.75 mg/kg, iv administered qd for 3 days (Rvb < 2 U/L); format: organism-based; conditions: in vivo, 72 h, time 3 day
[28] = Toxicity in nude mouse assessed as effect on platelet distribution width at 3.75 mg/kg, iv administered qd for 3 days (reference value: 20.2); format: organism-based; conditions: in vivo, 72 h, time 3 day
[29] = Toxicity in nude mouse assessed as animal death at 5 mg/kg, iv administered 3 consecutive dosages; format: organism-based; conditions: in vivo
[30] = Cardiotoxicity in nude mouse assessed as prolonged QT intervals at 5 mg/kg, iv administered once daily for 3 days by ECG analysis; format: toxicity, organism-based; conditions: in vivo, 72 h, time 3 day
[31] = Toxicity in nude mouse assessed as effect on alanine aminotransferase level in serum at 3.75 mg/kg, iv administered qd for 3 days (reference value: 308 U/L); format: organism-based; conditions: in vivo, 72 h, time 3 day
[32] = Toxicity in nude mouse assessed as effect on albumin level in serum at 3.75 mg/kg, iv administered qd for 3 days (reference value: 31.2 g/L); format: organism-based; conditions: in vivo, 72 h, time 3 day
[33] = Toxicity in nude mouse assessed as effect on platelet count at 3.75 mg/kg, iv administered qd for 3 days (reference value: 21 10^9/L); format: organism-based; conditions: in vivo, 72 h, time 3 day
[34] = Toxicity in nude mouse assessed as effect on white blood cell count at 3.75 mg/kg, iv administered qd for 3 days (reference value: 0.02 10^9/L); format: organism-based; conditions: in vivo, 72 h, time 3 day
[35] = Acute toxicity in BALB/c mouse assessed as animal survival at 50 mg/kg, iv administered as single dose measured after 14 days; format: organism-based; conditions: in vivo, time 14 day
[36] = Toxicity in nude mouse assessed as effect on eosinophil level at 3.75 mg/kg, iv administered qd for 3 days (reference value: 6 %); format: organism-based; conditions: in vivo, 72 h, time 3 day
[37] = Acute toxicity in BALB/c mouse assessed as lethal dose administered intravenously as single dose and measured after 14 days; conditions: in vivo, route iv, time 14 day
[38] = Toxicity in nude mouse assessed as effect on neutrophil level at 3.75 mg/kg, iv administered qd for 3 days (reference value: 7.40 %); format: organism-based; conditions: in vivo, 72 h, time 3 day
[39] = Acute toxicity in BALB/c mouse assessed as animal survival at 100 mg/kg, iv administered as single dose measured after 14 days; format: organism-based; conditions: in vivo, time 14 day
[40] = Acute toxicity in BALB/c mouse assessed as animal survival at 12.5 mg/kg, iv administered as single dose measured after 14 days; format: organism-based; conditions: in vivo, time 14 day
MDA-MB-231 [41] = assay: Antitumor activity against mouse xenografted with human MDA-MB-231 cells assessed as increase in tumor necrosis area at 3.75 mg/kg, iv administered every 2 days for 14 days by H and E staining based assay; format: functional, organism-based; conditions: time 14.0 day
[42] = Toxicity in nude mouse assessed as effect on alkaline phosphatase level in serum at 3.75 mg/kg, iv administered qd for 3 days (reference value: 66 U/L); format: organism-based; conditions: in vivo, 72 h, time 3 day
[43] = Cardiotoxicity in nude mouse assessed as abnormal spikes at 5 mg/kg, iv administered once daily for 3 days by ECG analysis; format: toxicity, organism-based; conditions: in vivo, 72 h, time 3 day
[44] = Toxicity in nude mouse assessed as effect on globulin level in serum at 3.75 mg/kg, iv administered qd for 3 days (reference value: 16.1 g/L); format: organism-based; conditions: in vivo, 72 h, time 3 day
[45] = Acute toxicity in BALB/c mouse assessed as animal survival at 25 mg/kg, iv administered as single dose measured after 14 days; format: organism-based; conditions: in vivo, time 14 day
[46] = Toxicity in nude mouse xenografted with human MDA-MB-231 cells assessed as pathological changes in kidney at 3.75 mg/kg, iv administered every 2 days for 14 days by H and E staining based assay; format: organism-based; conditions: in vivo, 336 h, time 14 day
[47] = Toxicity in nude mouse assessed as effect on monocytes level at 3.75 mg/kg, iv administered qd for 3 days (reference value: 37.10 %); format: organism-based; conditions: in vivo, 72 h, time 3 day
[48] = Toxicity in nude mouse xenografted with human MDA-MB-231 cells assessed as pathological changes in spleen at 3.75 mg/kg, iv administered every 2 days for 14 days by H and E staining based assay; format: organism-based; conditions: in vivo, 336 h, time 14 day
[49] = Toxicity in nude mouse assessed as effect on total protein level in serum at 3.75 mg/kg, iv administered qd for 3 days (reference value: 47.3 g/L); format: organism-based; conditions: in vivo, 72 h, time 3 day
[50] = Toxicity in nude mouse assessed as effect on mean corpuscular hemoglobin concentration at 3.75 mg/kg, iv administered qd for 3 days (reference value: 473 g/L); format: organism-based; conditions: in vivo, 72 h, time 3 day
[51] = Toxicity in nude mouse assessed as effect on total bilirubin level in serum at 3.75 mg/kg, iv administered qd for 3 days (reference value: 3.3 micromol/L); format: organism-based; conditions: in vivo, 72 h, time 3 day
[52] = Toxicity in nude mouse assessed as effect on aspartate aminotransferase level in serum at 3.75 mg/kg, iv administered qd for 3 days (reference value: 424 U/L); format: organism-based; conditions: in vivo, 72 h, time 3 day

SMILES: COc1ccc([C@H]2[C@H](CO)C(=O)N2c2cc(OC)c(OC)c(OC)c2)cc1OCc1ccc(O[C@@H]2O[C@H](C(=O)O)[C@@H](O)[C@H](O)[C@H]2O)c([N+](=O)[O-])c1
- Stability [1]: Unstable
- Stability [2]: Stable
- Stability [3]: Stable

SMILES: COc1ccc([C@H]2[C@H](CF)C(=O)N2c2cc(OC)c(OC)c(OC)c2)cc1OCc1ccc(O[C@@H]2O[C@H](C(=O)O)[C@@H](O)[C@H](O)[C@H]2O)cc1
- CLint scaled [4]: < 38 mL/min/kg
- microsomal CLint [5]: < 9.6 µL/min/mg
- remaining at 1 h [6]: 84.6%
- Stability [7]: Unstable
- IC50 (HeLa [8]): > 50000 nM
- Stability [2]: Stable
- IC50 (HeLa [9]): 14.3 nM
- IC50 (MDA-MB-231 [10]): 3.5 nM
- solubility at 10 min [11]: > 40 mg/mL
- IC50 (SK-OV-3 [12]): 22.6 nM
- Stability [3]: Stable
- half-life [13]: > 2.42 h
- IC50 (MCF7 [14]): > 50000 nM
- IC50 (SK-OV-3 [15]): > 50000 nM
- IC50 (MDA-MB-231 [16]): > 50000 nM
- IC50 (MCF7 [17]): 15.5 nM

SMILES: COc1ccc([C@H]2[C@H](CF)C(=O)N2c2cc(OC)c(OC)c(OC)c2)cc1O
- IC50 (HeLa [18]): 6.7 nM
- IC50 (MDA-MB-231 [19]): 1.1 nM
- IC50 (SK-OV-3 [20]): 3.8 nM
- IC50 (MCF7 [21]): 12.5 nM

SMILES: COc1cc(C(=O)c2c(N)oc3c(OCc4ccc(O[C@@H]5O[C@H](C(=O)O)[C@@H](O)[C@H](O)[C@H]5O)cc4)c(OC)ccc23)cc(OC)c1OC
- Stability [1]: Unstable
- Stability [2]: Stable
- Stability [3]: Stable

SMILES: COc1ccc([C@H]2[C@H](CO)C(=O)N2c2cc(OC)c(OC)c(OC)c2)cc1O (racemic)
- survival at 336 h [22]: 37.5%
- Activity [23]: 4.7%
- IC50 (HeLa [18]): 5.9 nM
- Activity [24]: Non-Toxic
- Activity [25]: 23.5 pg
- Activity [26]: 66.7%
- Activity [27]: < 2 U/L
- Activity [28]: 18.5
- Activity [29]: Toxic
- IC50 (MDA-MB-231 [19]): 11.9 nM
- Activity [30]: Toxic
- Activity [31]: 196 U/L
- Activity [32]: 33.1 g/L
- Activity [33]: 99 10^9/L
- IC50 (MCF7 [21]): 14.8 nM
- Activity [34]: 0.05 10^9/L
- survival at 336 h [35]: 87.5%
- Activity [36]: 18.2%
- LD50 at 336 h [37]: 65 mg/kg
- Activity [38]: 7.4%
- survival at 336 h [39]: 0%
- survival at 336 h [40]: 100%
- Activity (MDA-MB-231 [41]): Active
- Activity [42]: 142 U/L
- Activity [43]: Toxic
- Activity [44]: 15.7 g/L
- survival at 336 h [45]: 100%
- Activity [46]: Non-Toxic
- Activity [47]: 7.7%
- Activity [48]: Non-Toxic
- Activity [49]: 48.8 g/L
- Activity [50]: 488 g/L
- Activity [51]: 6.3 µmol/L
- Activity [52]: 503 U/L
